The values below come from PubChem BioAssay (NCI).

Some test systems named below: MDA-MB-468 breast; OVCAR-8 ovarian; T-47D breast; UACC-257 melanoma; OVCAR-5 ovarian; BT-549 breast; OVCAR-4 ovarian; NCI/ADR-RES ovarian; KM12 colon; SW-620 colon; SF-295 CNS; HT29 colon; RPMI-8226 leukemia; RXF 393 renal; EKVX NSCLC; SK-MEL-5 melanoma; MOLT-4 leukemia; HS 578T breast; SR leukemia; SF-539 CNS; CCRF-CEM leukemia; NCI-H522 lung; HOP-92 NSCLC; A498 renal; U251 CNS; OVCAR-3 ovarian; NCI-H23 lung; HCT-15 colon; ACHN renal; MALME-3M melanoma; SNB-19 CNS; SN12C renal; SK-MEL-28 melanoma; A549 NSCLC; CAKI-1 renal; SF-268 CNS; HL-60(TB) leukemia; MDA-MB-435; LOX IMVI melanoma; M14 melanoma; K-562 leukemia; HCT-116 colon; TK-10 renal; COLO 205 colon; 786-0 renal; DU-145 prostate; PC-3 prostate; HCC-2998 colon; SK-OV-3 ovarian; NCI-H226 lung; IGROV1 ovarian; MCF7 breast; UACC-62 melanoma; NCI-H460 lung; HOP-62 NSCLC.

Holding throughout (test): inhibition of tumour cell growth, NCI panel, 48 h

Values joined by “and” are separate entries in the source; they are usually repeats but may differ in a detail not shown here. Equal values may be shown once.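 How tested: cells in 96-well plates exposed to compound for 48 hours at five concentrations. The concentration for 50% growth inhibition is given as GI50. Definition used: TGI = concentration required for complete inhibition of growth.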

In the case of `CN1CCN(Cc2ccc(NC(=O)c3cncc(C#Cc4ncc5ccccn45)c3)cc2C(F)(F)F)CC1`, in the assay on MDA-MB-468 breast, the GI50 is 2780 nM and the TGI turned out to be 7.9 µM.

As to `COc1cc(OC)c2c(c1Cl)O[C@]1(C2=O)C(OCc2ccccc2)=CC(=O)C[C@H]1C`, in the assay on MDA-MB-468 breast, the GI50 was 741 nM and the TGI amounted to 47.5 µM.

For the compound `COc1ccc2c(c1)NC(=O)CN2c1nc(C)nc2ccccc12`, the GI50 in the assay on MDA-MB-468 breast is 0.415 nM.

On to `C=CC(=O)Nc1cccc(Nc2nc(Nc3ccc(N4CCN(C(C)=O)CC4)cc3OC)ncc2C(F)(F)F)c1`, for which, in the assay on MDA-MB-468 breast, the GI50 is 288 nM and 266 nM; the TGI is 1.98 µM and 1.62 µM.

As for `NS(=O)(=O)c1ccc(N=Nc2c(=O)[nH]c3ccc4[nH]cccc4c23)cc1`, in the assay with MDA-MB-468 breast, the GI50 was 73.3 nM and the TGI was 0.257 µM.

For `O=C(Nc1nc2ccc([N+](=O)[O-])cc2s1)Nc1ccccc1F`, the GI50 in the assay on OVCAR-8 ovarian was 15.8 µM; in the assay with T-47D breast, 3.06 µM; in the assay with UACC-257 melanoma, 6.08 µM; in the assay with OVCAR-5 ovarian, 22 µM; in the assay on BT-549 breast, 11.9 µM; in the assay on OVCAR-4 ovarian, 5.21 µM. Further, the GI50 with NCI/ADR-RES ovarian was 7.98 µM; in the assay on KM12 colon, 5.33 µM; in the assay with SW-620 colon, 12.2 µM; in the assay with SF-295 CNS it was 11.4 µM; with HT29 colon, 23.6 µM; in the assay with RPMI-8226 leukemia it was 3.45 µM. For the same compound, the GI50 was 13.3 µM with RXF 393 renal; 4.37 µM in the assay on EKVX NSCLC; 2640 nM in the assay with SK-MEL-5 melanoma; 3200 nM in the assay with MDA-MB-468 breast; 3.77 µM with MOLT-4 leukemia; 5.89 µM in the assay with HS 578T breast. Further, the GI50 is 3.31 µM in the assay on SR leukemia; 8.33 µM with SF-539 CNS; 5.42 µM in the assay with CCRF-CEM leukemia; 3.49 µM in the assay on NCI-H522 lung; 2830 nM in the assay with HOP-92 NSCLC; 4.88 µM in the assay with A498 renal. Besides, the GI50 in the assay with U251 CNS was 7.41 µM; with OVCAR-3 ovarian, 3.99 µM; in the assay with NCI-H23 lung, 3.6 µM; with HCT-15 colon it was 4.93 µM; in the assay with ACHN renal, 8.13 µM; in the assay with MALME-3M melanoma, 4.17 µM. Besides, the GI50 is 6.35 µM with SNB-19 CNS; 4.65 µM in the assay on SN12C renal; 5.79 µM in the assay on SK-MEL-28 melanoma; 7.4 µM in the assay on A549 NSCLC; 5.32 µM in the assay on CAKI-1 renal; 8.41 µM with SF-268 CNS. In addition, the GI50 was 4.31 µM in the assay on HL-60(TB) leukemia; 5.46 µM in the assay with MDA-MB-435; 10.7 µM in the assay with LOX IMVI melanoma; 19.1 µM in the assay with M14 melanoma; 4.99 µM in the assay with K-562 leukemia; 9.97 µM in the assay on HCT-116 colon. In addition, the GI50 with TK-10 renal is 8.78 µM; with COLO 205 colon it was 15.1 µM; with 786-0 renal it was 17.7 µM; in the assay with DU-145 prostate it was 7.11 µM; with PC-3 prostate, 6.83 µM; with HCC-2998 colon, 7.58 µM. Further, the GI50 in the assay with SK-OV-3 ovarian is 5.9 µM; in the assay with NCI-H226 lung, 13.4 µM; in the assay with IGROV1 ovarian, 4.57 µM; in the assay with MCF7 breast it was 5.68 µM; in the assay on UACC-62 melanoma, 3.77 µM; in the assay on NCI-H460 lung, 4.66 µM. The GI50 in the assay on HOP-62 NSCLC is 17.2 µM. The TGI was 50.4 µM in the assay on OVCAR-8 ovarian; 22.7 µM in the assay on T-47D breast; 36.9 µM in the assay on UACC-257 melanoma; 80.8 µM in the assay on OVCAR-5 ovarian; 46.5 µM with BT-549 breast; over 100 µM with OVCAR-4 ovarian. Besides, the TGI in the assay with NCI/ADR-RES ovarian was 32.4 µM; with KM12 colon it was 52.8 µM; in the assay on SW-620 colon, over 100 µM; in the assay with SF-295 CNS, 32.1 µM; in the assay with HT29 colon it was over 100 µM; in the assay with RPMI-8226 leukemia it was 16.5 µM. For the same compound, the TGI in the assay on RXF 393 renal came to 47.3 µM; in the assay with EKVX NSCLC, 55.5 µM; with SK-MEL-5 melanoma, 7.35 µM; in the assay with MDA-MB-468 breast, 19.2 µM; with MOLT-4 leukemia it was 15.5 µM; with HS 578T breast, 59 µM. In addition, the TGI with SR leukemia was found to be 17.4 µM; in the assay with SF-539 CNS, 26.9 µM; in the assay with CCRF-CEM leukemia it was 47.9 µM; in the assay on NCI-H522 lung, 22.6 µM; in the assay on HOP-92 NSCLC, 8.28 µM; in the assay with A498 renal, 36.7 µM. For the same compound, the TGI in the assay on U251 CNS was found to be 35.7 µM; with OVCAR-3 ovarian, 46.6 µM; with NCI-H23 lung, 21.6 µM; in the assay with HCT-15 colon, 33.9 µM; with ACHN renal it was 95.7 µM; with MALME-3M melanoma it was 30.9 µM. Also, the TGI was over 100 µM in the assay on SNB-19 CNS; 62.3 µM in the assay with SN12C renal; 83.8 µM in the assay with SK-MEL-28 melanoma; 28.5 µM in the assay on A549 NSCLC; 73.2 µM with CAKI-1 renal; over 100 µM in the assay with SF-268 CNS. Besides, the TGI is 22 µM in the assay on HL-60(TB) leukemia; over 100 µM with MDA-MB-435; 58.8 µM in the assay with LOX IMVI melanoma; over 100 µM with M14 melanoma; 25 µM in the assay with K-562 leukemia; 39.8 µM in the assay with HCT-116 colon. In addition, the TGI was 83 µM in the assay on TK-10 renal; 30.4 µM in the assay with COLO 205 colon; over 100 µM in the assay with 786-0 renal; over 100 µM in the assay on DU-145 prostate; 51 µM in the assay on PC-3 prostate; 34.1 µM with HCC-2998 colon. Moreover, the TGI with SK-OV-3 ovarian was 46.1 µM; in the assay on NCI-H226 lung it was over 100 µM; in the assay on IGROV1 ovarian, over 100 µM; in the assay with MCF7 breast, 35.3 µM; in the assay with UACC-62 melanoma it was over 100 µM; in the assay with NCI-H460 lung, 26.5 µM. In the assay on HOP-62 NSCLC, the TGI was determined as 56.3 µM.

For the compound `COc1cc[nH]c1/C=C1\C(=O)Nc2ccc([N+](=O)[O-])c(N3CC[C@@H](O)C3)c21`, in the assay with MDA-MB-468 breast, the GI50 was 352 nM and the TGI worked out at 0.995 µM.

Consider `COC(=O)CCc1c(/C=C2\N=C(c3ccc[nH]3)C=C2OC)[nH]c(C)c1C(=O)OCc1ccccc1`, for which, in the assay on MDA-MB-468 breast, the GI50 is 842 nM and the TGI is 4.4 µM.

With `COc1ccccc1/C=C/C=N/NC1=NC2C(S1)N(C)C(=O)N2c1ccccc1` (stereo not given), in the assay on MDA-MB-468 breast, the GI50 is 428 nM and the TGI was 31 µM.
